From US20110251238A1, “PPAR AGONIST COMPOSITIONS AND METHODS OF USE” (BIOPHARMED, priority 2008, published 2011)
pIC50: −log10 of the molar value.

System: BxPC3 (pancreatic cancer)
Assay: Growth inhibition, MTT colorimetric assay, BxPC3
Format: cell-based, human
Details: Homo sapiens, BXPC-3, 72 h; carcinoma; 3 days with drug; means of six values; unit inferred; read-out: IC50 BxPC3
Method in brief: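 Cells were cultured at 37° C with 5% CO2 in the presence of drug for 3 days. Proliferation was read by MTT absorbance at 570 nm. IC50 values are means of six distinct values.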

## Oc1ccc(CN(Cc2ccc(C(F)(F)F)cc2)Cc2ccc(O)c3ncccc23)c2cccnc12 [BPM18,708, 5,5′-(4-(trifluoromethyl)benzylazanediyl)bis(methylene)diquinolin-8-ol]
  pIC50: 5.37
